# Test results taken from patent US5776427A, “Methods for targeting the vasculature of solid tumors” (Board of Regents, The University of Texas System, priority 1995, dated 1998).
# “Also recorded” adds a separate entry of the source. Where a name gives a salt, the structure may show the parent alone.
# Test system: Ia^d on colonic endothelium and epithelium
# Assay: Ia^d expression and anti-Ia^d antibody localization in the gut of BALB/c nu/nu mice given oral tetracycline-HCl (indirect immunoperoxidase staining)
# Format: in vivo, mouse
# Description: BALB/c nu/nu mice were purchased from Simonsen (Gilroy, Calif.). SCID mice were from the UT Southwestern Medical Center breeding colony. All animals were maintained in microisolation units on sterilized food and water. Where indicated, tetracycline-HCI (Vedeo, St. Joseph, Mo.) was added to drinking water to a final concentration of 1.1 mg/ml (Harkness et al., 1983). Both strains carry the H-2^d haplotype.
# For the establishment of solid tumors, a total of 2×10^7 C1300 or C1300 (Muγ) cells, or a mixture of the two, in 200 μl MEM-30% FCS were injected subcutaneously into the right anterior flank of BALB/c nu/nu or SCID mice. Tumor diameters were measured at regular intervals and the animals were euthanized after 16 days (rapidly-growing tumors) or 20 days (slowly-growing tumors). Tumors and normal tissues were excised immediately and snap-frozen over liquid nitrogen. Normal tissues were also harvested from non-tumor-bearing animals. Antibody localization studies were performed in animals bearing 1 cm subcutaneous tumors induced by injection of C1300 and C1300 (Muγ) in the ratio 7:3. One hundred micrograms of unconjugated M5/114 or CAMPATH-2 antibodies or 100 μg biotinylated 11-4.1 or WT-1 antibodies in 100 μl PBS were injected intravenously. At various times thereafter the animals were euthanized and their circulation was flushed with PBS for 5 minutes before removal and freezing of tumors and normal tissues as before. […] frozen sections were cut on a Tissuetek 2 cryostat (Baxter) and air-dried for 2 hours at room temperature. Slides were stored at -20° C. for up to 3 months before assay.
# Indirect immunoperoxidase staining for rat IgG was adapted from a method described by Billington et al. (1986). Sections were allowed to return to room temperature, air dried for 30 minutes and fixed in acetone for 15 minutes. After rehydration in PBS for 5 minutes, sections were incubated in a humidified chamber for 45-60 minutes with primary antibodies, diluted optimally in PBS-0.2% BSA, (PBS-BSA). […]
structure (smiles),measurement,setting,value
"CN(C)[C@@H]1C(O)=C(C(N)=O)C(=O)[C@@]2(O)C(O)=C3C(=O)c4c(O)cccc4[C@@](C)(O)[C@H]3C[C@@H]12 [tetracycline-Hcl, tetracycline-HCI]",localization of intravenously-injected anti-Ia^d antibody to colonic endothelial cells,oral administration before antibody injection,abolished localization
same,Ia^d expression in the colon and elsewhere in the gut,"oral, 1-3 weeks",progressive diminution; also recorded: diminished Ia^d expression
same,numbers of intravillous CD3-positive cells,"oral, 1-3 weeks",dramatic decrease
